The values that follow come from PubChem BioAssay (NCI).

Some test systems named below: OVCAR-3 ovarian; SF-539 CNS; MCF7 breast; SR leukemia; SF-295 CNS; DU-145 prostate; COLO 205 colon; TK-10 renal.
What all share (assay): DTP human tumour cell line panel, 48 h

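Grown in 96-well plates, cells were treated for 48 hours with each compound at five concentrations. Insufficient inhibition: endpoint recorded as highest concentration tested. GI50 = concentration required for 50% inhibition of growth. TGI denotes the concentration required for complete inhibition of growth.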

As to `COc1ccc(Cn2c(N)c(S(=O)(=O)c3ccc(Cl)cc3)c3nc(C#N)c(C#N)nc32)cc1`, the GI50 in the assay with OVCAR-3 ovarian is 2.9 µM; with SF-539 CNS, over 50 µM; in the assay on MCF7 breast it was 5.85 µM; with SR leukemia it was 29.9 µM; in the assay on SF-295 CNS, 10.8 µM; in the assay on DU-145 prostate, 20.2 µM. In addition, the GI50 with COLO 205 colon was over 50 µM; in the assay on TK-10 renal it was 11.6 µM. Moreover, the TGI in the assay with OVCAR-3 ovarian was 19.4 µM; in the assay on SF-539 CNS, over 50 µM; in the assay on MCF7 breast, over 50 µM; with SR leukemia, over 50 µM; in the assay with SF-295 CNS, over 50 µM; with DU-145 prostate, over 50 µM. Moreover, the concentration for total growth inhibition (TGI) in the assay with COLO 205 colon is over 50 µM; with TK-10 renal, 41.5 µM.
`CC1(C)N=C(N)N=C(N)N1c1ccc(CCCCc2ccc(Cl)c(S(=O)(=O)F)c2)c(Cl)c1`: the GI50 is 2.22 µM in the assay with OVCAR-3 ovarian; 0.542 µM with SF-539 CNS; 0.529 µM with MCF7 breast; 0.186 µM in the assay on SR leukemia; 0.995 µM with SF-295 CNS; 0.769 µM in the assay on DU-145 prostate. The GI50 was 1.71 µM in the assay with COLO 205 colon and 12.3 µM in the assay with TK-10 renal. Moreover, the TGI was 15.1 µM in the assay with OVCAR-3 ovarian; 13 µM in the assay on SF-539 CNS; 16.9 µM with MCF7 breast; 3.36 µM in the assay with SR leukemia; 10.6 µM in the assay on SF-295 CNS; 16.5 µM in the assay on DU-145 prostate. The TGI with COLO 205 colon is 7.98 µM; in the assay on TK-10 renal, 48.8 µM.
Turning to `COc1cccc2c1C(=O)c1c(O)c3c(c(O)c1C2=O)C[C@@](O)(/C(C)=N/NC(=O)c1ccc(Cl)cc1)C[C@@H]3OC1CC(N)C(O)C(C)O1` (stereo partly specified), the GI50 is 0.395 µM in the assay with OVCAR-3 ovarian; 0.21 µM with SF-539 CNS; 0.236 µM in the assay with SF-295 CNS; 0.271 µM with DU-145 prostate; 0.178 µM in the assay with TK-10 renal. Moreover, the total growth inhibition concentration (TGI) in the assay with OVCAR-3 ovarian came out at 2.4 µM; in the assay on SF-539 CNS it was 0.747 µM; in the assay with SF-295 CNS, 2.2 µM; in the assay with DU-145 prostate it was 13.5 µM; in the assay with TK-10 renal, 0.723 µM.
Consider `COC(=O)c1cc2c(s1)-c1nccc3c1c(nc1ccccc13)C2=O`, for which the GI50 with OVCAR-3 ovarian is 16.5 µM; with MCF7 breast, 26.1 µM; with SF-295 CNS, over 100 µM; in the assay on DU-145 prostate, over 100 µM; in the assay with COLO 205 colon, 50.2 µM; in the assay with TK-10 renal it was over 100 µM. Further, the TGI in the assay on OVCAR-3 ovarian is 56.2 µM; in the assay with MCF7 breast, over 100 µM; with SF-295 CNS, over 100 µM; in the assay with DU-145 prostate, over 100 µM; with COLO 205 colon, over 100 µM; in the assay on TK-10 renal it was over 100 µM.
Consider `COc1ccc(-c2cc(/C=C/C(=O)c3ccc(OC)c(OC)c3)[nH]n2)cc1`, for which the GI50 was 1.19 µM in the assay with OVCAR-3 ovarian; 1.27 µM in the assay on SF-539 CNS; 0.417 µM in the assay on MCF7 breast; 0.677 µM with SR leukemia; 2.08 µM in the assay with SF-295 CNS; 1.4 µM in the assay on DU-145 prostate. For the same compound, the GI50 with COLO 205 colon is 1.76 µM; with TK-10 renal, 2.11 µM. Besides, the TGI with OVCAR-3 ovarian was found to be 2.47 µM; with SF-539 CNS it was 2.61 µM; in the assay with MCF7 breast, 1.76 µM; in the assay on SR leukemia, 3.74 µM; with SF-295 CNS, 5.37 µM; with DU-145 prostate, 2.81 µM. Also, the TGI with COLO 205 colon worked out at 3.3 µM; with TK-10 renal, 4.31 µM.
Turning to `C[C@H]1CN[C@@H]2[C@@H](C)[C@H]3[C@@H](C[C@H]4[C@@H]5CC[C@H]6C[C@@H](N)CC[C@]6(C)[C@H]5CC[C@]34C)O[C@@]2(O)C1`, the TGI in the assay on OVCAR-3 ovarian came out at 5.96 µM; in the assay on SF-539 CNS, 3.27 µM; in the assay on MCF7 breast it was 26.3 µM; in the assay on SF-295 CNS, 10.3 µM; with DU-145 prostate, 16.9 µM; in the assay with COLO 205 colon, 7.69 µM. The TGI with TK-10 renal was determined as 11.7 µM.
As for `O=C(Nc1ccc(Cl)c(C(F)(F)F)c1)c1ccc(NC2=C(Cl)C(=O)N(Cc3ccccc3)C2=O)cc1`, the GI50 was 18.6 µM with OVCAR-3 ovarian; 8.92 µM in the assay with SF-539 CNS; 1.65 µM in the assay with SR leukemia; 19.7 µM in the assay on SF-295 CNS; 2.45 µM with DU-145 prostate; 19.2 µM in the assay on COLO 205 colon. In the assay on TK-10 renal, the GI50 was 19.4 µM. The TGI is 37.9 µM in the assay with OVCAR-3 ovarian; 23.9 µM in the assay with SF-539 CNS; 4.33 µM with SR leukemia; 52.8 µM in the assay on SF-295 CNS; 6.71 µM with DU-145 prostate; 56.8 µM in the assay with COLO 205 colon. This compound yielded a TGI with TK-10 renal of 34.4 µM.
In the case of `Cn1cc(-c2csc(-c3c[nH]c4ccc(Br)cc34)n2)c2cnccc21`, the GI50 with OVCAR-3 ovarian is 2.08 µM; in the assay on SF-539 CNS, 2.14 µM; in the assay on MCF7 breast it was 1.77 µM; in the assay with DU-145 prostate, 2.25 µM; in the assay with TK-10 renal, 1.97 µM. Moreover, the TGI with OVCAR-3 ovarian worked out at 4.19 µM; in the assay with SF-539 CNS it was 4.6 µM; with MCF7 breast, 3.71 µM; with DU-145 prostate, 5.62 µM; in the assay with TK-10 renal, 5.84 µM.
As to `Cc1nc2cc(Nc3nc(Nc4ccc(F)cc4)nc(-c4cccs4)n3)ccc2n1Cc1ccccc1`, the GI50 in the assay on OVCAR-3 ovarian was 4.87 µM; with SF-539 CNS, 3.27 µM; in the assay on MCF7 breast, 2.15 µM; in the assay on SR leukemia it was 2.56 µM; with SF-295 CNS, 3.61 µM; with DU-145 prostate, 7.7 µM. Moreover, the GI50 in the assay on COLO 205 colon is 3.7 µM. The TGI in the assay on OVCAR-3 ovarian is 38.1 µM; in the assay with SF-539 CNS, 12.9 µM; with MCF7 breast, 7.91 µM; in the assay with SR leukemia, 7.44 µM; with SF-295 CNS, 16.7 µM; in the assay with DU-145 prostate, over 100 µM. The same compound displayed a TGI in the assay with COLO 205 colon of 12.9 µM.
Turning to `CN(C)CCSc1cc(-c2ccccc2)c2ccccc2n1`, the TGI in the assay with SF-539 CNS was 23 µM; in the assay with MCF7 breast it was 27.8 µM; in the assay on SR leukemia, over 100 µM; in the assay on SF-295 CNS it was 28 µM; with DU-145 prostate, 28.7 µM; with COLO 205 colon it was 4.85 µM. In the assay with TK-10 renal, the TGI came to 19.4 µM.
In the case of `COc1ccc(-c2nnc(N3CCN(C(=O)CN4CCN(c5ccccc5)CC4)CC3)nc2-c2ccc(OC)cc2)cc1`, the GI50 was 3.39 µM in the assay with OVCAR-3 ovarian; 6.03 µM with SF-539 CNS; 2.8 µM in the assay on MCF7 breast; 5.83 µM with SF-295 CNS; 13.4 µM with DU-145 prostate; 2.57 µM with COLO 205 colon. Also, the GI50 in the assay on TK-10 renal is 3.52 µM. For the same compound, the TGI was over 100 µM in the assay on OVCAR-3 ovarian; 35.3 µM in the assay on SF-539 CNS; over 100 µM with MCF7 breast; 47.7 µM in the assay with SF-295 CNS; over 100 µM with DU-145 prostate; 57.2 µM with COLO 205 colon. This compound showed a TGI with TK-10 renal of 47.6 µM.

The term GI50 denotes the concentration that inhibits growth by half. By TGI is commonly meant the concentration at which net growth stops.
